Experimental data from patent US20040161839A1, “Method to alter sugar moieties” (priority 2003, published 2004).

T1: DesI (Streptomyces venezuelae, UniProt Q9ZGH0)
T1 sequence (Q9ZGH0 1-415): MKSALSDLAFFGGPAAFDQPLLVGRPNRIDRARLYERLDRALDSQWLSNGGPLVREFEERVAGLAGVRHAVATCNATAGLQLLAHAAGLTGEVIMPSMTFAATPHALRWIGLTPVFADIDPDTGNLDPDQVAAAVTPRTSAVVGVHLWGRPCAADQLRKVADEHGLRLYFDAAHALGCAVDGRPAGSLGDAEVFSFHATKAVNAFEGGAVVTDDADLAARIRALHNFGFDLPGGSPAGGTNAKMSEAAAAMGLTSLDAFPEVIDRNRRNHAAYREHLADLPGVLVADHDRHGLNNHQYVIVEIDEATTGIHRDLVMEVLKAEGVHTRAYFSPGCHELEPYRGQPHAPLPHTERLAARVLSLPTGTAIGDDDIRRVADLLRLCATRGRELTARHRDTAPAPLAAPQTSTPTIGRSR


Columns and labels:
Streptococcus pyogenes = test: Antibiotic activity, filter paper disc test on agar plates; type: cell-based; conditions: for antibiotic activity against Streptococcus pyogenes (inhibition zone around disc): 20 μL of each sample (1.6 mM in MeOH) on filter paper discs, Mueller-Hinton agar plates, overnight at 37° C.; for activity against Streptococcus pyogenes grown on Mueller-Hinton agar plates: purified compounds
Protocol: The antibiotic activity of a compound of formula (13) and (14) against Streptococcus pyogenes was examined by separately applying 20 μL of each sample (1.6 mM in MeOH) to sterilized filter paper discs which were placed onto the surface of S. pyogenes grown on Mueller-Hinton agar plates (Mangahas, 1996).

[1] = molecular target: cytochrome P450 hydroxylase (PikC) (Streptomyces venezuelae, UniProt O87605); test: Incubation with purified PikC in vitro (aglycone hydroxylation); type: biochemical
Sequence of cytochrome P450 hydroxylase (PikC) (O87605 whole entry): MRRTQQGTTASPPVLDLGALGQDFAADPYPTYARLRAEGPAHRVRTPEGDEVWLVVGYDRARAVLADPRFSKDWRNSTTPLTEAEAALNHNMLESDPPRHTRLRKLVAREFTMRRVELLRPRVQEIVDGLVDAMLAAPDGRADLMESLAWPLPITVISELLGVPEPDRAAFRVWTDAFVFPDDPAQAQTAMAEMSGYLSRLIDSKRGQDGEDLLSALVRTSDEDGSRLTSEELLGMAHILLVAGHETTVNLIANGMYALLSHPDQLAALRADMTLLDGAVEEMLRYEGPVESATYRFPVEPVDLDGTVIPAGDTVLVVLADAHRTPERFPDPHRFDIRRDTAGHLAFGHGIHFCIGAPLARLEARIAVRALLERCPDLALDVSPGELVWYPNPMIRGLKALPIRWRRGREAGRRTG
Text: Another noteworthy, albeit unexpected result was the fact that the aglycone of the isolated macrolide 31 was 10-deoxymethynolide instead of methymycin and neomethymycin analogues that are hydroxylated. […] It is possible that the cytochrome P450 hydroxylase (PikC), which catalyzes the hydroxylation of 10-deoxymethynolide and narbonolide (Xue et al., 1998) is sensitive to structural variations on the appended sugar. […] A similar observation was also noted in the case where desosamine was replaced by quinovose (Example 4). It could be argued that the presence of a substituent (either hydroxyl or amino group) at C-4 in the sugar moiety is responsible, at least in part, for decreasing or preventing hydroxylation of the macrolide.

DNA = conditions: tight DNA binding, literature; cited from earlier work
DesI = molecular target: T1, DesI; test: Incubation with purified DesI in the presence of L-glutamate, HPLC analysis; 4-aminotransferase kinetics; type: biochemical
Text: To verify the catalytic function of DesI, the desI gene was amplified by PCR and cloned into the pET-28b(+) expression vector (Novagen) with a His6-tag at the N-terminus. The produced DesI protein was purified to near homogeneity by a Ni-NTA column (Qiagen) followed by FPLC on a MonoQ column.

[2] = substrate: Cc1cn([C@H]2C[C@H](O)[C@@H](COP(=O)(O)OP(=O)(O)O[C@H]3O[C@H](C)C(=O)[C@H](O)[C@H]3O)O2)c(=O)[nH]c1=O; test: as above; type: biochemical, Streptomyces venezuelae; conditions: other: DesI as PLP-dependent 4-aminotransferase, sugar substrate 6

| Molecule | antibiotic activity against Streptococcus pyogenes (inhibition zone around disc) (Streptococcus pyogenes) | activity against Streptococcus pyogenes grown on Mueller-Hinton agar plates (Streptococcus pyogenes) | further results |
| --- | --- | --- | --- |
| CC1CC(N(C)C)C(O[C@@H]2O[C@H](CO)[C@@H](O)[C@H](O)[C@H]2O)C(OC2C(C)CC(C)C(=O)C=CC(C)C(C(C)O)OC(=O)C2C)O1 (stereo partly drawn) [formula (14), C-2′β-glucosylated neomethymycin] | no such clearings were discernible | – | – |
| CCC1OC(=O)C(C)C(OC2OC(C)C(NC(C)=O)C(O)C2O)C(C)CC(C)C(=O)C=CC1C (centres unmarked) [compound 31] | – | inactive | aglycone hydroxylation on incubation with purified PikC [1]: no aglycone hydroxylation was discernible |
| calicheamicin [calicheamicin (26)] | – | – | Ka (DNA binding) (DNA): 10^6-10^8 |
| CC[C@H]1OC(=O)[C@H](C)[C@@H](O[C@@H]2O[C@H](C)C[C@H](N(C)C)[C@H]2O)[C@@H](C)C[C@@H](C)C(=O)/C=C/[C@]1(C)O [formula (1), methymycin] | clearly visible inhibition zones | clearly visible inhibition zones | – |
| CC[C@H]1OC(=O)[C@H](C)C(=O)[C@H](C)[C@@H](O[C@@H]2O[C@H](C)C[C@H](N(C)C)[C@H]2O)[C@@H](C)C[C@@H](C)C(=O)/C=C/[C@]1(C)O [pikromycin] | – | clearly visible inhibition zones | – |
| Cc1cn(C2CC(O)C(COP(=O)(O)OP(=O)(O)OC3OC(C)C(O)C(=O)C3O)O2)c(=O)[nH]c1=O [TDP-3-keto-deoxy-D-glucose (7), TDP-3-keto-deoxy-D-glucose] | – | – | consumption of substrate / formation of new product by DesI (DesI): no consumption |
| CCC1OC(=O)C(C)C(=O)C(C)C(OC2OC(C)C(NC(C)=O)C(O)C2O)C(C)CC(C)C(=O)C=CC1C (centres unmarked) [compound 32] | – | inactive | aglycone hydroxylation on incubation with purified PikC [1]: no aglycone hydroxylation was discernible |
| CCC1OC(=O)C(C)C(OC2OC(C)CC(N(C)C)C2O[C@@H]2O[C@H](CO)[C@@H](O)[C@H](O)[C@H]2O)C(C)CC(C)C(=O)C=CC1(C)O (stereo partly drawn) [formula (13), C-2′β-glucosylated methymycin] | no such clearings were discernible | – | – |
| C[C@@H]1C[C@H](N(C)C)[C@@H](O)[C@H](O[C@H]2[C@@H](C)C[C@@H](C)C(=O)/C=C/[C@@H](C)[C@@H]([C@@H](C)O)OC(=O)[C@@H]2C)O1 [formula (2), neomethymycin] | clearly visible inhibition zones | clearly visible inhibition zones | – |
| DesI (Streptomyces venezuelae) (protein) MKSALSDLAFFGGPAAFDQPLLVGRPNRIDRARLYERLDRALDSQWLSNGGPLVREFEERVAGLAGVRHAVATCNATAGLQLLAHAAGLTGEVIMPSMTFAATPHALRWIGLTPVFADIDPDTGNLDPDQVAAAVTPRTSAVVGVHLWGRPCAADQLRKVADEHGLRLYFDAAHALGCAVDGRPAGSLGDAEVFSFHATKAVNAFEGGAVVTDDADLAARIRALHNFGFDLPGGSPAGGTNAKMSEAAAAMGLTSLDAFPEVIDRNRRNHAAYREHLADLPGVLVADHDRHGLNNHQYVIVEIDEATTGIHRDLVMEVLKAEGVHTRAYFSPGCHELEPYRGQPHAPLPHTERLAARVLSLPTGTAIGDDDIRRVADLLRLCATRGRELTARHRDTAPAPLAAPQTSTPTIGRSR | – | – | Km [2]: 130 ± 4 µM |
